Results on 3 compounds are retold here after patent US4111751A, “Method of purifying alcohol dehydrogenase” (President and Fellows of Harvard College, priority 1977, dated 1978).

The target in test [1] is T1, II-ADH (anodic band of liver alcohol dehydrogenase) (Homo sapiens, UniProt P08319).
T1 construct: Starting with 100 g frozen human liver; from tissue; host or cells: human liver (frozen), purified
Put plainly: inhibition of purified II-ADH (anodic band, pyrazole-insensitive liver alcohol dehydrogenase) activity. The test is classed as biochemical. The text has this: (§1) However, purification of these enzymes has been a complicated and difficult procedure. […] Elution is preferably carried out with pyrazole solution or with a lower alkanol having at least two carbon atoms, e.g., ethanol, 1-propanol, 1-butanol, 1-pentanol, and the like. Further purification and separation of isoenzymes from the bound portion can be achieved by alcohol gradient elution. The alcohol dehydrogenase of the bound portion can be separated from the NAD after elution, if desired, by conventional dialysis procedures. […] The anodic band of liver alcohol dehydrogenase, as identified by Li et al., Biochem. Biophys. Res. Comm.

The subject of test [2] is all other forms of liver alcohol dehydrogenase. Put plainly: inhibition of the other (pyrazole-sensitive) forms of liver alcohol dehydrogenase. The test is classed as biochemical, human.
From the text: as §1

The test system of test [3] is human liver alcohol dehydrogenase. Put plainly: inhibition of alcohol dehydrogenase activity of frozen human liver starting material. The test is classed as biochemical. The following applies: 33 micromolar, pH 10, frozen human liver. As for the experimental part:
Starting with 100 g frozen human liver having a specific activity at pH 10 of about 0.05 I.U./mg and low inhibition (~ 75%) by 33 micromolar 4-methyl-pyrazole at pH 10 as well as high intensity of stain for the anodic band on starch gel electrophoresis, the liver was homogenized in 2.5 volumes water at 4° C., centrifuged for 30 min. at 30,000 rpm in a 30 rotor to provide 240 ml. of clear supernatant assaying at 58 I.U. of pyrazole-insensitive activity with a specific activity of 0.002 I.U./mg.

For test [4], the system named is other forms of liver alcohol dehydrogenase. The following applies: read-out: Km for ethanol; cited from earlier work.
Test [5] concerns the target T1, II-ADH (anodic band of liver alcohol dehydrogenase). The test is classed as biochemical. As to conditions: pH 7.5; read-out: Km for ethanol.
From the text: as §1

The structures appear in SMILES notation. Some results are limits rather than exact numbers.

By inhibition is commonly meant the relative decrease from the control value, in per cent. Read a high inhibition as a strong effect. The term Km denotes the substrate concentration at which the rate is half of its maximum. In general, Ki refers to a dissociation constant, usually derived from enzyme kinetics or from competition with a known ligand.

T1 sequence (P08319 2-380 limits assumed): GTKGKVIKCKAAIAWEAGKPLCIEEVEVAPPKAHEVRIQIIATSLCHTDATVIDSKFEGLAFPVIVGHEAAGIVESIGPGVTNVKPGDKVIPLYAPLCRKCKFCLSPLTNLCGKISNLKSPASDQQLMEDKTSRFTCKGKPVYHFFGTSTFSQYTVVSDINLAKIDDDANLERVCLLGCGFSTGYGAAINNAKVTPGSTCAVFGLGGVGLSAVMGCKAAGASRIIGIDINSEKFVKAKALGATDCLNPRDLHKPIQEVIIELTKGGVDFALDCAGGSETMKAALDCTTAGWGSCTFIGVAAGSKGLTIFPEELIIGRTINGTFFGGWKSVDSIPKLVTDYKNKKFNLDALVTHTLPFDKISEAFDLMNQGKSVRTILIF

On to `Cc1cn[nH]c1` [4-methylpyrazole], for which the inhibition at 200 µM in test [1] (0.2 mM 4-methylpyrazole, 100 mM ethanol, purified II-ADH) is less than 10%. Besides, the “inhibition” value in test [1] (33 micromolar, product after agarose-AMP) was “virtually uninhibited”; in test [3], ~ 75%. Besides, the Vi/Vc in test [1] (eluant (effluent) of pyrazole affinity resin containing the anodic band) was 95-100%. Also, the inhibition of activity entry in test [2] (0.2 mM 4-methylpyrazole, 100 mM ethanol, remainder of purified enzyme forms) is recorded as “more than 90%”.
For the compound `CCO` [ethanol], the Km in test [4] is not above 1 mM; in test [5], 15 to 30 mM.
In the case of `c1cn[nH]c1` [pyrazole], the inhibitory constant (Ki) in test [2] (all other forms of liver alcohol dehydrogenase) was less than 1 µM.
